The text below walks through data of patent publication US8710043B2, “TRPM8 antagonists and their use in treatments” (Amgen Inc., priority 2011, dated 2014).

This experiment addresses T1, human TRPM8 (Homo sapiens, UniProt Q7Z2W7).
T1 construct: expressed in transfected cells; host or cells: Chinese hamster ovary (CHO) cells, T-REx tetracycline-inducible system, co-transfected with aequorin
Put plainly: Luminescence readout assay for measuring intracellular calcium, icilin activation. The format is cell-based. The settings on record: CHO cells expressing human TRPM8, aequorin luminescence, 1 μM icilin activation; read-out: hTRPM8 IC50. The procedure, abridged: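 The read-out was luminescence reporting intracellular calcium, recorded by a CCD-based luminometer. Compounds were preincubated for 2.5 min before agonist challenge with 1 μM icilin. Human TRPM8 was expressed in a stable T-REx CHO line, induced with 0.5 μg/mL tetracycline the day before.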
A general note: Calcium flux is commonly read through the fluorescence of an indicator in the cells.

For orientation: IC50 means the concentration at which inhibition is half-maximal.

SMILES strings stand for the structures.

T1 sequence (Q7Z2W7 whole entry): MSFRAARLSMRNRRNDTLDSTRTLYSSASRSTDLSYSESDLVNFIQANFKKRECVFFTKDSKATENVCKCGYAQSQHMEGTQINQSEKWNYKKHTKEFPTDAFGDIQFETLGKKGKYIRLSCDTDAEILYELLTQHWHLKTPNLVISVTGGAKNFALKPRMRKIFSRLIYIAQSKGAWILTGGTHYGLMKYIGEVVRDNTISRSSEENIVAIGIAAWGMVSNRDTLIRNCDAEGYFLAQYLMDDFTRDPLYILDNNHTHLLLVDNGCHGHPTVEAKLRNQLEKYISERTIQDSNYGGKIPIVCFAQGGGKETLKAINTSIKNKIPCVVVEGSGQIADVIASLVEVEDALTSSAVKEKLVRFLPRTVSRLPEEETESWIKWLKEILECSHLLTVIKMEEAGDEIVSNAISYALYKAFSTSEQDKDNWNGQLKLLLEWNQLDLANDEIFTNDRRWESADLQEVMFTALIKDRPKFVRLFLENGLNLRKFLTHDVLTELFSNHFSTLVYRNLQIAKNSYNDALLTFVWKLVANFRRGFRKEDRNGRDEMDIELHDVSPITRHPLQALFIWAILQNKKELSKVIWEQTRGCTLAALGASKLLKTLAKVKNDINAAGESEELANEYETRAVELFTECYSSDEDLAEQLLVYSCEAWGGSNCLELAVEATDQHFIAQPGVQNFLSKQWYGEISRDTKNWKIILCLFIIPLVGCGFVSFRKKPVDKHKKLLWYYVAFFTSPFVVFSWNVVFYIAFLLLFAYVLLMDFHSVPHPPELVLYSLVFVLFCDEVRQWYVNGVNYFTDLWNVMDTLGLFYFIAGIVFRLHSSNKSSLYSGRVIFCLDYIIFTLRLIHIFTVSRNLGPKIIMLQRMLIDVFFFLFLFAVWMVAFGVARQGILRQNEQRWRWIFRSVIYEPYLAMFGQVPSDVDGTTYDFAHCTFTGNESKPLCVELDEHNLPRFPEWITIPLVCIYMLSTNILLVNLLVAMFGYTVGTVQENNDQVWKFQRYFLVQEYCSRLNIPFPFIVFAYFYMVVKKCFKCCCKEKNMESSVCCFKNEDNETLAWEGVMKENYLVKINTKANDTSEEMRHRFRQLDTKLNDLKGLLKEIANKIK

Take `O=C1COc2cc(C(=O)N[C@@H](c3ccc(C(F)(F)F)cc3)c3ncccc3F)ccc2N1` [Example 73, (S)-N-((3-fluoropyridin-2-yl)(4-(trifluoromethyl)phenyl)methyl)-3-oxo-3,4-dihydro-2H-benzo[b][1,4]oxazine-7-carboxamide]: the IC50 is 17 nM.
In the case of `O=C(O)Cn1cc(C(=O)N[C@@H](c2ccc(C(F)(F)F)cc2)c2ncccc2F)ccc1=O` [Example 429, (S)-2-(5-(((3-Fluoropyridin-2-yl)(4-(trifluoromethyl)phenyl)methyl)carbamoyl)-2-oxopyridin-1(2H)-yl)acetic Acid], the half-maximal inhibitory concentration (IC50) was 2660 nM.
Consider `O=C(N[C@@H](c1ccc(OC(F)(F)F)c(F)c1)c1ncccc1F)c1cnc2[nH]c(=O)oc2c1` [Example 427, (S)—N-((3-Fluoro-4-(trifluoromethoxy)phenyl)(3-fluoropyridin-2-yl)methyl)-2-oxo-2,3-dihydrooxazolo[4,5-b]pyridine-6-carboxamide], for which the 50% inhibitory concentration (IC50) turned out to be 14 nM.
In the case of `O=C(N[C@@H](c1ccc(C(F)(F)F)cc1)c1ncccc1F)c1c[nH]c2ncccc12` [Example 54, (S)-N-((3-fluoropyridin-2-yl)(4-(trifluoromethyl)phenyl)methyl)-1H-pyrrolo[2,3-b]pyridine-3-carboxamide] it was 23.1 nM; in that of `CNC(=O)c1ccc(C(=O)N[C@@H](c2ccc(C(F)(F)F)cc2)c2ncccc2F)nc1` [Example 273, (S)—N^2-((3-Fluoropyridin-2-yl)(4-(trifluoromethyl)phenyl)-methyl)-N^5-methylpyridine-2,5-dicarboxamide 2,2,2-trifluoroacetate], 16.1 nM.
Under `COc1cccnc1[C@@H](NC(=O)c1ccc2cccnc2c1)c1ccc(C(F)(F)F)cc1` [Example 28, (S)-N-((3-methoxypyridin-2-yl)(4-(trifluoromethyl)phenyl)methyl)quinoline-7-carboxamide] stands 194 nM; under `O=C(N[C@@H](c1ccc(C(F)(F)F)cc1)c1ncccc1F)c1ccc2nccn2c1` [Example 253, (S)-N-((3-fluoropyridin-2-yl)(4-(trifluoromethyl)phenyl)methyl)imidazo[1,2-a]pyridine-6-carboxamide 2,2,2-trifluoroacetate], 11.4 nM; under `O=C(N[C@@H](c1ccc(C(F)(F)F)cc1)c1ncccc1C(F)(F)F)c1ccc2cccnc2n1` [Example 128, (S)-N-((4-(trifluoromethyl)phenyl)(3-(trifluoromethyl)pyridin-2-yl)methyl)-1,8-naphthyridine-2-carboxamide 2,2,2-trifluoroacetate], 125 nM.
For `CC(C)(C)c1cccnc1[C@@H](NC(=O)c1ccc2cccnc2c1)c1ccc(C(F)(F)F)cc1` [Example 286, (S)—N-((3-(tert-Butyl)pyridin-2-yl)(4-(trifluoromethyl)phenyl)-methyl)quinoline-7-carboxamide 2,2,2-trifluoroacetate], the half-maximal inhibitory concentration (IC50) was determined as 1110 nM.
In the case of `COc1ccccc1C(=O)N[C@@H](c1ccc(C(F)(F)F)cc1)c1ncccc1C(F)(F)F` [Example 176, (S)-2-methoxy-N-((4-(trifluoromethyl)phenyl)(3-(trifluoromethyl)pyridin-2-yl)methyl)benzamide] it was 21.9 nM; in that of `O=C(N[C@@H](c1ccc(OC(F)(F)F)cc1)c1ncccc1F)c1ccc2nccn2c1` [Example 89], 10.3 nM.
`O=C(N[C@@H](c1cccc(F)c1)c1ncccc1C(F)(F)F)c1ccc2cccnc2c1` [Example 17, (S)-N-((3-fluorophenyl)(3-(trifluoromethyl)pyridin-2-yl)methyl)quinoline-7-carboxamide]: the IC50 was 230 nM.
Under `O=C(N[C@@H](c1ccc(C(F)(F)F)cc1)c1ncccc1C(F)(F)F)c1ccc(OC(F)(F)F)cc1` [Example 231, (S)-4-(trifluoromethoxy)-N-((4-(trifluoromethyl)phenyl)(3-(trifluoromethyl)pyridin-2-yl)methyl)benzamide] stands 461 nM.
